Source: PMC12321279, “Novel 4,5‐Dihydrothiazole‐Phenylpiperazine Derivatives: Synthesis, Docking Studies and Pharmacological Evaluation as Serotonergic Agents” (Chemmedchem, 2025)
Where “and” joins values, the source holds several entries; their conditions need not be identical. Identical values can stand only once.

Experiments:
[1] = target: T1, 5‐HT1A receptor (Rattus norvegicus, UniProt P19327); assay: 5‐HT1A competition binding assay ([3H]8‐OH‐DPAT, hippocampal membranes); conditions: 1 nM [3H]8‐OH‐DPAT, 95% CI in brackets, read-out: 5‐HT1A Ki (95% CI)
T1 construct: 80 μg of hippocampal membrane suspension (the 5‐HT1A assay); from tissue; host or cells: rat (Sprague-Dawley) hippocampus membranes
T1 sequence (P19327 1-422): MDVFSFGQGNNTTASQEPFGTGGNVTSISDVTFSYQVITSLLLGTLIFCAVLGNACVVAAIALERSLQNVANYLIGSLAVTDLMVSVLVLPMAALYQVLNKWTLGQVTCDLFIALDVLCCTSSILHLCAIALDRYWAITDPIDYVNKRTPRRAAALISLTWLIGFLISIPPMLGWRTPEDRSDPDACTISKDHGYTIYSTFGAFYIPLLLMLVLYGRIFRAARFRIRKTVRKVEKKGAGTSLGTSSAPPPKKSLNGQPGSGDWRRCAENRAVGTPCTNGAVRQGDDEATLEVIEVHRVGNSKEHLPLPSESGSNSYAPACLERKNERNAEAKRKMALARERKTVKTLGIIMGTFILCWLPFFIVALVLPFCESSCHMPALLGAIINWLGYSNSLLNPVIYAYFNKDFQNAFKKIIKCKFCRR
Method: (§1) Sprague‐Dawley rats were sacrificed by isoflurane overdose. Brains were rapidly removed and placed on ice. Hippocampi (for the 5‐HT1A assay) and frontal cortices (for the 5‐HT2A and 5‐HT2C assays) were dissected on a Petri dish. The tissue from 10 rats was homogenized in 30 vol. homogenization buffer (50 mM Tris–HCl, […], 1 mM EDTA, 1 mM dithiothreitol) with a handheld Teflon‐glass homogenizer. The homogenate was centrifuged at 48,000 × g at 4 °C for 15 min. The pellet was suspended and homogenized in the homogenization buffer and incubated for 10 min. at 36 °C. The centrifugation and suspension steps were repeated twice. The final pellet was homogenized in 5 vol. 50 mM Tris–HCl, pH = 7.4 buffer and stored at −80 °C for no longer than 6 months. […] For the 5‐HT2C assay, compounds were incubated in duplicate with 5 nM [^3H]mesulergine (specific activity: 80.2 Ci mmol^−1, Revvity, MA, USA) for 60 min. at 36 °C in a 50 mM Tris‐HCl (pH 7.4) buffer, supplemented with 5 mM MgCl2, 140 mM NaCl, 1 mM DTT, 1 mM CaCl2, 10 μM pargyline and 160μg of the frontal cortex membrane suspension. Non‐specific binding was determined with 10μM serotonin. The final DMSO concentration in the assay was 5%. After incubation, the reaction mixture was deposited onto Unifilter GF/C plates (Revvity, MA, USA) presoaked in 0.4% PEI (or 0.4% PEI and 0.5% Triton X‐100 for the 5‐HT2C assay) for 1 h with the FilterMate‐96 Harvester (Revvity, MA, USA). Then, each well was washed with 2 mL of 50 mM Tris–HCl (pH 7.4) buffer to separate bound ligands from free and the plates were left to dry overnight. Then, 35μl of Microscint‐20 scintillation fluid (Revvity, MA, USA) was added to each filter well and left to equilibrate for 2h. Filter‐bound radioactivity was counted in a MicroBeta2 LumiJet scintillation counter (Revvity, MA, USA). Binding curves were fitted with one site non‐linear regression. Binding affinity (pKi and Ki) for each compound was calculated from the […] values with the Cheng‐Prusoff equation from two separate experiments.

[2] = target: T1, 5‐HT1A receptor; assay: 5‐HT1A receptor activation in the [35S]GTP‐γ‐S assay (hippocampal membranes); type: biochemical; conditions: [35S]GTPγS, rat hippocampal membranes; for EC50: 95% CI in brackets, read-out: EC50 (95% CI, μM), 5‐HT1A receptor G‐protein stimulation
Method: Seven compound concentrations equally spaced on a log scale (10–4 M to 10–10 M) were incubated in duplicate with hippocampal membrane preparations (5μg per well) in assay buffer (50 mM Tris‐HCl, pH = 7.4, 1 mM EGTA, 3 mM MgCl2, 100 mM NaCl, and 30 μM GDP) and 0.08 nM [^35S]GTP‐γ‐S (specific activity: 1250 Ci mmole^−1, Revvity). Nonspecific binding was determined with 10μM of unlabeled GTP‐γ‐S. The final DMSO concentration in the assay was 5%. The reaction mixture was incubated for 90 min. at 30 °C on an orbital shaker set at 250 rpm. Next, the reaction mixture was deposited under vacuum with the FilterMate Harvester (Revvity, USA) onto Unifilter GF/C Plates (Revvity, MA, USA) presoaked with wash buffer (50 mM Tris‐HCl, pH = 7.4). The wells were then rapidly washed with 2 mL of wash buffer. Filter plates were dried overnight at room temperature. Once completely dry, 35 μl of MicroScint PS (Revvity, MA, USA) scintillation fluid was added to each well. Radioactivity was counted in a MicroBeta2 LumiJet scintillation counter (Revvity, MA, USA). Data were analyzed with GraphPad Prism 5.0 software (GraphPad Software, San Diego California USA, www.graphpad.com). The curves were fitted with three‐parameter non‐linear regression model.

[3] = target: T2, 5‐HT2A receptor (Rattus norvegicus, UniProt P14842); assay: Inhibition of 5‐HT‐evoked contractions in isolated rat ileum; set-up: segments (1–1.5 cm) of ileum were removed, flushed of luminal contents, and placed in Krebs solution; from tissue; host or cells: isolated rat (Sprague-Dawley) ileum segments; conditions: 5‐HT 10^−5 M, compounds 10^−8–10^−5 M; for IC50: IC50, inhibition of 5‐HT‐induced contractions in the rat ileum, contact time 10 min; for Emax: read-out: EMAX, maximal inhibitory effect on 5‐HT‐induced contractions in the rat ileum
Method: Male rats (Sprague‐Dawley, 160–200 g; Charles River Laboratories; Calco, Italy) were manipulated and cared for in strict compliance with the principles of laboratory animal care. Experimental procedures were conducted in conformity with Italian (D.L. 26/2014) and European (directive 2010/63/EU) regulations on the protection of animals used for scientific purposes and approved by the Italian Ministry. Animal housing complied with recent pharmacological guidance.^[ [40] ^] All animals weighing 160–200 g were used after a 1‐week acclimation period (temperature 23 ± 2 °C; humidity 60%, free access to water and standard food).
The segments were prepared as previously described:^[ [41] ^] the segments were set up in such a way as to record contractions mainly from the longitudinal axis, in an organ bath containing 20 mL of Krebs solution, bubbled with 95% O2 and 5% CO2 and maintained at 37 °C. The tissues were connected to an isotonic transducer (load: 0.5 g), connected to Power Lab system (Ugo Basile, Comerio, Italy). Ileal segments were equilibrated for 60 min^[ [16] ^] followed by three repeated additions of submaximal concentration of 5‐HT (10^−5 M) in order to record stable control contractions. […] The contact time for each concentration was 10 min. The compounds were dissolved in DMSO. […] Results are expressed as mean (SEM). […] The IC50 and Emax values were calculated with the aid of a computer program (GraphPad Prism 5).

[4] = target: T2, 5‐HT2A receptor; assay: 5‐HT2A competition binding assay ([3H]ketanserin, frontal cortex membranes); set-up: from tissue; host or cells: rat (Sprague-Dawley) frontal cortex membranes; conditions: 1 nM [3H]ketanserin, 95% CI in brackets, read-out: 5‐HT2A Ki (95% CI)
[5] = target: T3, 5‐HT2C receptor (Rattus norvegicus, UniProt P08909); assay: 5‐HT2C competition binding assay ([3H]mesulergine, frontal cortex membranes); conditions: 5 nM [3H]mesulergine, 95% CI in brackets, read-out: 5‐HT2C Ki (95% CI)
T3 construct: 10 μM pargyline and 160μg of the frontal cortex membrane suspension; from tissue; host or cells: rat (Sprague-Dawley) frontal cortex membranes
T3 sequence (P08909 33-460): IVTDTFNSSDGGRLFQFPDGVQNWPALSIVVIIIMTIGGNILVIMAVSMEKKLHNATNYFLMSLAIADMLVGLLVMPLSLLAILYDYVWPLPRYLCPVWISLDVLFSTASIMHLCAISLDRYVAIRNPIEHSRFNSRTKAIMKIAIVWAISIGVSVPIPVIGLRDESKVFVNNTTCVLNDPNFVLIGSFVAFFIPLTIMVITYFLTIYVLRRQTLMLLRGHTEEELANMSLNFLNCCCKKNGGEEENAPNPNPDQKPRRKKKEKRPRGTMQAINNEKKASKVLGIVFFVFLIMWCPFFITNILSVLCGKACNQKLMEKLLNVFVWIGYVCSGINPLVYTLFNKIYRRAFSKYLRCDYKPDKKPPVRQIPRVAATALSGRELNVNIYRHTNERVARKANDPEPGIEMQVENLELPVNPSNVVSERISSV
Method: as §1

T2 sequence (P14842 whole entry): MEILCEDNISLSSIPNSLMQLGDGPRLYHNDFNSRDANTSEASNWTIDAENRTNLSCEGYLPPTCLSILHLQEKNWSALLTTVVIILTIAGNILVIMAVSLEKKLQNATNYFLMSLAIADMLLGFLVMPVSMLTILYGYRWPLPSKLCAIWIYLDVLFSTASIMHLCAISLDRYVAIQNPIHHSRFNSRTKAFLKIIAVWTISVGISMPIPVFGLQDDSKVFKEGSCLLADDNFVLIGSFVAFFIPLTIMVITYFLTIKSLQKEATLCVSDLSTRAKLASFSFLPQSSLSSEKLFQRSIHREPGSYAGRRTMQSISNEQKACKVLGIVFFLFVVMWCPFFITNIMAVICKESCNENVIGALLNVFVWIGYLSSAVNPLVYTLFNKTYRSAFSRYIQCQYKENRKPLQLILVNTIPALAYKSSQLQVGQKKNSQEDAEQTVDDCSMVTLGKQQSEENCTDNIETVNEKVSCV

Row | Structure (SMILES) | Ki [1] | EC50 [2] | Emax ([2]; read-out: Emax (%) ± SEM, 5‐HT1A receptor G‐protein stimulation) | EMAX, maximal inhibitory effect on 5‐HT‐induced contractions in the rat ileum [3] | IC50 [3] | Ki [4] | Ki [5] | Emax (%) ± SEM, 5‐HT1A receptor G‐protein stimulation [2] | Emax [3]
1 | O=C(NCCCN1CCN(c2cccc(C3=NCCS3)c2)CC1)C1CC2C=CC1C2 (stereo not drawn) [FG‐14, Exo‐N‐(3‐(4‐(3‐(4,5‐dihydrothiazol‐2‐yl)phenyl)piperazin‐1‐yl)propyl) bicyclo [2.2.1] hept‐5‐ene‐2‐carboxamide] | 340 nM | 23.3 µM | 133 ± 5.7% | 22.48% | 2590 nM | 430 nM | 72 nM | – | –
2 | O=C(NCCCN1CCN(c2ccccc2C2=NCCS2)CC1)C1CC2C=CC1C2 (stereo not drawn) [FG‐16, Endo‐N‐(3‐(4‐(2‐(4,5‐dihydrothiazol‐2‐yl)phenyl)piperazin‐1‐yl)propyl) bicyclo[2.2.1] hept‐5‐ene‐2‐carboxamide] | 25 nM and 25.1 nM | 41 µM | – | – | 6350 nM | 1370 nM | 4830 nM | 127 ± 3.2% | 39.1%
3 | O=C(NCCCN1CCN(c2cccc(C3=NCCS3)c2)CC1)C1CC2C=CC1C2 (stereo not drawn) [FG‐17, Endo‐N‐(3‐(4‐(3‐(4,5‐dihydrothiazol‐2‐yl)phenyl)piperazin‐1‐yl)propyl) bicyclo[2.2.1]hept‐5‐ene‐2‐carboxamide] | 823 nM | 21.1 µM | – | – | 1250 nM | 6060 nM | 1660 nM | 134 ± 2.5% | 25%
